These compounds were tested on Cricetinae gen. sp. (assay: The compound was tested for the inhibition of all-trans retinoic acid (ATRA) catabolism using 7.27 pmol [11,12-3H]-ATRA as substrate in microsomal preparations of male hamster liver fortified with NADPH).
Assay type: functional

IC50 [nM]	SMILES
880	CC1=C(/C=C/C(C)=C/C=C/C(C)=C/C(=O)O)C(C)(C)CCC1n1cncn1 (stereo not given)
680	COC(=O)/C=C(C)/C=C/C=C(C)/C=C/C1=C(C)C(n2cncn2)CCC1(C)C (stereo not given)
1620	CC1=C(/C=C/C(C)=C/C=C/C(C)=C/C(=O)O)C(C)(C)CCC1n1cnnc1 (stereo not given)
100	CC1=C(/C=C/C(C)=C/C=C/C(C)=C/C(=O)O)C(C)(C)CCC1n1ccnc1 (stereo not given)

SMILES	IC50 [nM]
CC(=O)N1CCN(c2ccc(OC[C@H]3CO[C@](Cn4ccnc4)(c4ccc(Cl)cc4Cl)O3)cc2)CC1 [KETOCONAZOLE]	34000
